Article PMC5465257, “Evaluation of JNJ-54717793 a Novel Brain Penetrant Selective Orexin 1 Receptor Antagonist in Two Rat Models of Panic Attack Provocation” (Frontiers in Pharmacology, 2017)

How the values were obtained:
[1] = tested on: Sprague-Dawley rats; assay: Sodium lactate panic provocation model (1-allyglycine treated rats)
Method: Experiments were performed in male Sprague-Dawley rats (300–350 g, Harlan Laboratory, Indianapolis, IN, United States). Prior to and during surgeries, rats were anesthetized with a nose cone connected to an isoflurane system (MGX Research Machine; Vetamic, Rossville, IN, United States). Radiotelemetry probes [Cat. no. HD-S11, Data Sciences International, St. Paul, MN, United States] were surgically implanted into the peritoneal cavity and sutured to the muscle wall in order to assess general motor activity. A pressure transducer was implanted into the femoral artery to assess cardiovascular responses [i.e., mean arterial blood pressure (MAP) and heart rate (HR)]. Rats were also fitted with femoral venous catheters for 0.5 M i.v. sodium lactate (NaLac) infusions, as previously described ([Shekhar et al., 1996]). After 3–5 days of recovery, rats were anesthetized and 26 gauge T-shaped cannulae (Cat. no. 3260PG, Plastics One, Inc., Roanoake, VA, United States) were directed at cardio-excitatory Perifornical hypothalamic area regions [([Shekhar and Keim, 1997]) bregma: 1.2 mm posterior, +2.1 mm lateral, +9.1 mm ventral and adjusted for approaching at a 10° angle toward the midline with the stereotaxic incisor bar elevated 5 mm above the interaural line] and cemented into place. The 22 gauge side arm was then attached, via PE-60 tubing, to an osmotic minipump (prefilled with 1-allyglycine solution chronically infused at 3.5 nmol/0.5 μl per hour) and sutured into place subcutaneously at the nape of the neck (DURECT Corporation, Model no. 2002).
Five days following 1-allyglycine infusion onset, in a counterbalanced design and with 48 h between crossover, rats were orally dosed with either JNJ-54717793 at 3, 10, or 30 mg/kg, or vehicle as a control group 60 min prior to the 15 min 0.5 M sodium lactate challenge. […] The data reported are changes in mean arterial blood pressure, HR, and activity from the average of the baseline (t-5 to t-1) from each rat.
Baseline SI testing was done 7–8 days following radiotelemetry surgery recovery, and repeated again 2–3 days later during drug treatment crossover. On experimental drug testing days, the SI test was performed 5 min after the offset of the sodium lactate challenge with different partners each time. The SI box dimension were 0.9 m long × 0.9 m wide × 0.3 m height. […] All behavioral tests were digitally videorecorded with a camera above the box. The “experimental” rat and an unfamiliar “partner” rat were both allowed to individually habituate to the box for a 5 min period 24 h prior to each SI test. During the SI test, the two rats were placed together in the center of the box, and the total duration (sec) of non-aggressive physical contact (grooming, sniffing, crawling over and under, etc.) initiated by the “experimental” rat is quantified over a 5 min duration. A baseline SI test was performed at least 72 h after i.v. catheterization, but prior to osmotic minipump implantation. Another SI test was performed 5 days following minipump infusions and immediately following saline or sodium lactate infusions. Video recorded sessions were scored at a later time by Stephanie D Fitz, whom was blind to any drug treatment.
Each dependent variable for assessment of behavior and radiotelemetry data was respectively analyzed using a one way ANOVA, or a one way ANOVA with repeated measures with drug treatment as the main factor and time as repeated measures. In the presence of significant main effects post hoc tests were conducted using a parametric Fisher’s LSD test. Within subjects time effects were also assessed using a Dunnett’s one way analysis with the minute prior to the i.v infusion used as the control.

[2] = tested on: wild-type mice; assay: Sleep recording (EEG/EMG) in wild-type mice; format: in vivo, mouse
Method: (§1) Sleep experiments were conducted in male Sprague-Dawley rats (350–450 g, Harlan Laboratories, Livermore, CA, United States) and in male C57Bl6 OX2R knockout (KO) and corresponding wild-type mice (30–35 g, Charles River Laboratories, San Diego, CA, United States) as described previously ([Dugovic et al., 2009]). Animals were chronically implanted with telemetric devices (Data Sciences International, St. Paul, MN, United States) for the recording of electroencephalogram (EEG) and electromyogram (EMG) signals. Polysomnographic waveforms were analyzed per 10-s epoch and classified as wake, non-rapid eye movement (NREM) or REM sleep by using the computer software program SleepSign (Kissei Comtec, Nagano, Japan). For each experiment, EEG and EMG signals were recorded for up to 6 h after administration of the tested compounds. Analysis of sleep parameters included latency to NREM sleep (defined as the time interval to the first six consecutive NREM epochs) and REM sleep (the first two consecutive REM epochs post-treatment), and the duration of NREM and REM.
(§2) Results were averaged and expressed as mean ± SEM in defined time intervals. To determine whether differences were significant at a given interval, either paired Student’s t-test or two-way analysis of variance (ANOVA) (interaction time × treatment), repeated measures followed by Bonferroni post hoc test was performed.
(§3) In the present study, the in vivo functional target engagement was investigated in a model of permanent inhibition of OX2R, and the effects of JNJ-5471773 on sleep-wake states were examined in mice lacking the OX2R relative to their corresponding wild-type mice. […] NREM sleep latency and duration were not affected in both genotypes (not shown).

[3] = tested on: C57Bl6 OX2R knockout (KO) mice; assay: Sleep recording (EEG/EMG) in OX2R knockout mice; format: in vivo, mouse
Method: as §1, §2, §3

[4] = rats, after sodium lactate challenge

## O=C(c1cccc(F)c1-c1ncccn1)N1[C@@H]2CC[C@H]1[C@H](Nc1cnc(C(F)(F)F)cn1)C2 [JNJ-54717793, (1S,2R,4R)-7-([(3-fluoro-2-pyrimidin-2-ylphenyl)carbonyl]-N-[5-(trifluoromethyl)pyrazin-2-yl]-7-azabicyclo[2.2.1]heptan-2-amine)]
[1]; rats, 10 mg/kg p.o., t3 timepoint, no overall treatment effect
  sodium lactate-induced pressor response (MAP): attenuation of pressor response
[1]; rats, 3, 10, 30 mg/kg p.o., compared to vehicle
  sodium lactate-induced tachycardia (HR): did not attenuate
[1]; rats, 3, 10, 30 mg/kg p.o., sodium lactate did not increase locomotion
  locomotion: did not significantly alter
[1]; [4]
  center or middle times in the open field test: Nor was there an effect
  sedative effects (line crossings) in the open field test: no apparent sedative effects
[1]; rats, highest dose (30 mg/kg p.o.)
  sodium lactate-induced anxiety behavior in the SI test: attenuate/block
[2]; 30 mg/kg oral
  REM sleep duration: did not alter
  REM sleep latency: slightly reduced
[2]; 30 mg/kg oral (not shown)
  NREM sleep latency and duration: not affected
[3]; 30 mg/kg oral (not shown)
  NREM sleep latency and duration: not affected
[3]; 30 mg/kg oral, first 6 h post-treatment, versus vehicle
  time spent in REM sleep: prolonged
[3]; 30 mg/kg oral, versus vehicle
  latency for REM sleep: significantly reduced
